Read-outs that look alike come from different tables or passages of the source.
Experiments:
p-JNK = experiment: Western blot, LPS-induced phosphorylation of JNK in RAW264.7 cells; type: cell-based, mouse; conditions: RAW264.7, 1.0, 2.0, 4.0 μM, LPS 1.0 μg/mL 30 min
Description: Primary antibodies (anti-Bax, Abcam, ab32503; anti-Bcl-2, Abcam, ab194583; anti-Cleaved caspase-3, Abcam, ab2302; anti-p65, Cell Signalling Technology, 8242S; anti-p-p65, Cell Signalling Technology, 3033S; anti-IκBα, Cell Signalling Technoligy, 4812S; anti-p-IκBα, Cell Signalling Technology, 2859S; anti-p38, Cell Signalling Technology, 8690S; anti-p-p38, Cell Signalling Technology, 4511S; anti-JNK, Cell Signalling Technology, 9258 T; anti-p-JNK, Santa Cruz Biotechnology, sc-6254; anti-GAPDH, Abcam, ab181602), and goat anti-rabbit IgG/HRP secondary antibodies (Cell Signalling Technology, 98164 s) were purchased and used according to the manufacturer’s instructions. HepG2 cell lines were incubated with different doses of BAP 16 (1.0, 2.0, 4.0 μM) for 24 h (Bax, Cleaved caspase-3, Bcl-2). RAW264.7 cells were incubated with BAP 16 for 1 h, then treated with LPS (1.0 μg/mL) for 30 min. Afterward cell extraction was performed and extracts were used for Western blot analysis. Next, 30 μg protein of cell lysates were separated by 12% SDS-PAGE gel. The proteins were then transferred onto nitrocellulose membranes. […] By using Quantity One software (Bio-Rad), western blotting results were quantified from more than three separate experiments.

HepG2 = experiment: Modified MTT cytotoxicity assay, HepG2; type: cell-based, Human; conditions: for IC50: Homo sapiens; for SI (selectivity index) HepG2: quotient of IC50 for normal (LO2) and malignant (HepG2) cells
How it was run: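 HepG2 grown in DMEM, SMMC-7721 and LO2 in RPMI 1640, each with 10% FBS; ~8 × 10^3 cells/well. Compounds at 0.3125-10 μg/mL for 24 h at 37 °C, then MTT for 4 h. IC50 as mean of three replicates.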

in vitro = type: cell-based; conditions: human
Method: aThe letters SI refer to the selectivity index which is the quotient of the IC50 values for normal and […]
Preliminary safety evaluation of BAP 16
Toxicity test on normal non-liver cell lines: To validate the safety of BAP 16, one Human embryonic lung fibroblasts cell line (HFL1), one human embryonic kidney cell line (HEK293), and one human normal lung bronchial epithelial cell line (BEAS-2B) were tested using a modified MTT assay (Dojindo Laboratories, Tokyo, Japan). F12K medium containing 10% FBS was used for culturing the HFL1 cell line, DMEM medium containing 10% FBS and 1.5 g/L sodium bicarbonate was used for culturing the HEK293 cell line, and the BEAS-2B special medium was used for culturing BEAS-2B cell line. The remaining operations were consistent with the previous […]
human normal non-heptical cell lines (HFL1, HEK293 and BEAS-2B), which was similar to that of human normal heptical cell lines.
Table S2. Toxicity test of BAP 16 on normal non-heptical cell lines. […]
(§1) Acute Toxicity Studies: Animal experiments were reviewed and approved by the Binzhou Medical University Experimental Animal Committee. The acute toxicity study was investigated on the six-week-old female ICR mice (n = 30) weighing 18-22 grams (Jinan Pengyue Experimental Animal Breeding Co., Ltd.). Briefly, mice were randomly divided into three groups (n = 10/group) and administrated the BAP 16 or solvent. The three groups of mice were treated with intragastric administration of 300 mg/kg, 600 mg/kg of BAP 16 and vehicle (saline containing 0.5% CMC-Na) each day. The body weight of mice was recorded every day, and the toxicity and death of mice were monitored daily for up to day 14. On day 14, the surviving animals were dissected to observe whether the internal organs had visible tissue changes, and then the livers were taken for formaldehyde fixation, dehydration, embedding, sectioning, and HE staining. The cell images were taken using a light microscopy (Olympus, Tokyo, Japan).

female ICR mice = experiment: Acute toxicity study, 14 days intragastric administration; type: in vivo; conditions: for Liver tissue morphology, HE staining: intragastric
Method: Preliminary safety evaluation of BAP 16 […]
as §1
During the 14 days of intragastric administration, the food and water intakes of all three groups […]
eosinophilic changes, and edema (Figure S1).
Figure S1. The morphology of the liver tissues after the photo by HE staining. (A) In the control group, the hepatic lobular cells were normal without edema and degeneration. (B) In the 300 mg/kg […]
nucleus stained deeper. […] (C) […]
smaller and the color of nucleus became deeper. There were obvious eosinophilic changes and […]
(1 picture or pasted object on this page, not shown here)

RAW264.7 cell = experiment: MTT toxicity pre-experiment on RAW264.7 macrophagocyte; type: cell-based, mouse
How it was run: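 Cytotoxicity toward RAW264.7 macrophages determined by MTT assay with compounds at 5.0 μM, expressed as cell survival rate.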

[1] = mice, intragastric, 300, 600 mg/kg/d, 14 days

O=C1C(=Cc2cccc(C(F)(F)F)c2)CN(S(=O)(=O)c2ccc(C(F)(F)F)cc2)CC1=Cc1cccc(C(F)(F)F)c1 [BAP 16]
Expression level of p-JNK (p-JNK): significantly decreased | IC50 (HepG2; HepG2, 24 h, MTT, 24 h incubation, three replicates, read-out: Cytotoxicity IC50 HepG2): ~0.6 µM | IC50 (HepG2; HepG2, average of HepG2 and SMMC-7721, read-out: Cytotoxicity against HCC cells, average): 0.9 µM | SI value, average (HepG2; average of SI for HepG2 and SMMC-7721): 22.3 | SI (selectivity index) HepG2 (HepG2): ca. 29.7 | SI (selectivity index) HepG2 (HepG2; listed as 16): 29.7 | IC50 (in vitro; Cytotoxicity IC50 BEAS-2B): 17.6 ± 2.53 µM | IC50 (in vitro; Cytotoxicity IC50 HEK293): 7.19 ± 0.91 µM | IC50 (in vitro; Cytotoxicity IC50 HFL1): 9.62 ± 1.52 µM | Overall toxicity conclusion (female ICR mice; cell and acute toxicity studies together): low overall toxicity | Liver tissue morphology, HE staining (female ICR mice; mice, 300 mg/kg group, day 14): some liver cells became smaller | Liver tissue morphology, HE staining (female ICR mice; mice, 600 mg/kg group, day 14): the cytoplasm of mouse liver was dehydrated seriously | Body weight (female ICR mice; [1]): increased slightly | Food and water intakes (female ICR mice; [1]): normal | Toxic reaction observed during administration (female ICR mice; [1]): no obvious toxic reaction was observed | Liver tissue changes, HE staining (female ICR mice; mice, intragastric, 300, 600 mg/kg/d, day 14): dose-related toxic changes | Survival rate RAW264.7 cell (RAW264.7 cell; BAPs 5 μM): 88.6 ± 3.7% | viability at 5 µM (RAW264.7 cell; Mus musculus, RAW264.7, BAPs 5 μM, read-out: Survival rate RAW264.7 cell): 88.6%

From PMC8297402, “Trifluoromethyl-substituted 3,5-bis(arylidene)-4-piperidones as potential anti-hepatoma and anti-inflammation agents by inhibiting NF-кB activation” (Journal of Enzyme Inhibition and Medicinal Chemistry, 2021)
